In ChEMBL document CHEMBL1155249, “Molecular modifications on carboxylic acid derivatives as potent histone deacetylase inhibitors: Activity and docking studies” (Bioorg Med Chem, 2009) one finds Ki and IC50 data, which are given here for 7 compounds.

As usually defined, the Ki is a measure of affinity in units of concentration, obtained from inhibition or displacement. A low value points to higher affinity. As usually defined, the IC50 is the concentration that gives 50% inhibition. Read a low IC50 as greater potency in that assay.

This experiment addresses Histone deacetylase. The experiment in a line: Inhibition of HDAC in human Hela cells nuclear extracts by fluorimetric assay. The format is cell-based.
`O=C(O)/C=C/c1ccccc1` [CINNAMIC ACID] gave a Ki of 0.00821 µM. This lies in the single-digit nanomolar range.
Same read-out and setting: next, `NCCCC(=O)O` [GAMMA-AMINOBUTYRIC ACID]: 8.19 µM.
Consider `O=C(/C=C/c1ccc(O)c(O)c1)O[C@@H]1C[C@](O)(C(=O)O)C[C@@H](O)[C@H]1O` [CHLOROGENIC ACID], for which the IC50 came out at 375 µM and the Ki turned out to be 0.135 µM.
`O=C([O-])CCCc1ccccc1.[Na+]` [SODIUM PHENYLBUTYRATE] came in with a Ki of 6.34 µM. In other words, the single-digit micromolar range.
Turning to `CCCC(=O)O` [BUTYRIC ACID], the Ki amounted to 136 µM.
As to `CCCC(=O)[O-].[Na+]` [SODIUM BUTYRATE], the IC50 amounted to 800 µM and the Ki came out at 365 µM.
The compound `O=C(O)/C=C/c1ccc(O)c(O)c1` [CAFFEIC ACID] returned an IC50 of 2540 µM and a Ki of 10.84 µM.
